Data as given in patent US20260317367A1, “SALTS INCLUDING CRYSTALLINE SALTS OF 25-HYDROXY-CHOLEST-5-EN-3-SULFATE AND METHODS FOR PREPARING SAME” (Durect Corporation, priority 2022, published 2026).
Where a name gives a salt, the structure may show the parent alone. Read-outs that look alike come from different tables or passages of the source.

Legend:
Type in all cases: physicochemical
[1] = Dynamic vapor sorption (DVS), hygroscopicity; settings: DVS
Excerpt: Dynamic vapor sorption (DVS) measures the uptake of a vapor (typically water) by a sample when exposed to a changing relative humidity. The loss of water can also be measured as relative humidity is decreased. Hygroscopic materials tend to absorb water more readily than non-hygroscopic. In some cases, hydrates absorb water to create higher-order hydrates (e.g., a monohydrate converting to a dihydrate when exposed to increasingly humid conditions). In some salts of the disclosure, moisture is retained upon exposure in a DVS experiment and little or no weight loss is observed upon heating from room temperature. In such experiments, the hygroscopic nature of the salt under study may indicate the formation of a hydrate from an anhydrate. […] Exemplary methods for collecting DVS data are set forth in Example 26.
Dynamic vapor sorption data was collected on a Surface Measurement System DVS Intrinsic instrument. The samples were not dried prior to analysis. Sorption and desorption data were collected over a range from 5% to 95% RH in 10% RH increments under a nitrogen purge. The equilibrium criteria used for the analyses were 0.001 dm/dt weight change in 5 minutes with a minimum step time of 30 minutes and maximum equilibration time of 180 minutes with a 3 minute data logging interval. Data were not corrected for the initial moisture content of the sample.

[2] = Appearance (color, clumping, flowability) of stored 25HC3S salts
Method: Approximately 25 mg of each crystalline 25HC3S salt was added to 20 mL glass vials and each powder weight was recorded. Four vials were prepared for each salt and stored at 2-8° C. or 80° C. according to Table B2. The samples were scheduled initially to pull for testing at 3 weeks and 6 weeks' time points.
For those […] salts, the remaining vials stored at 2-8° C. for 3 weeks were allocated for storage at 60° C. for 1 week. Additional stability data was generated according to Table B3.
For appearance, each unopened vial was visually examined for color, clumping, and flowability.

[3] = Solubility of 25HC3S salts after one day at room temperature (HPLC, as free acid); settings: for Solubility in FaSSGF: Fasted State Simulated Gastric Fluid, pH 1.6, room temperature; for Solubility in methanol (in words): MeOH
Method: These fluids were prepared per the instruction listed by Biorelevant (Biorelevant.com). Each buffer concentrate was diluted with water and mixed well. FaSSIF, FeSSIF, FaSSGF powder was added to each buffer and mixed to completely dissolve the powder. Buffers were stored at room temperature and used within 48 hours of preparation.
(§1) 25HC3S salts were weighed in 8 mL or 4 mL glass vials with Teflon coated screw caps. Aliquots of each solvent were added to each sample and vortexed for about one minute until excess solid remained. Samples were placed on shaker at room temperature with 210 motion per minute shaking.
(§2) After one day, samples were pulled and checked if excess solid was present. About 1.5 mL aliquot of each sample was centrifuged at 12000 rpm for 12 to 15 minutes. […] Aliquots of the top clear solution of each centrifuged sample in MeOH, EtOH, IPA and ACN were diluted with diluent (water:MeOH 95:5) and assayed by HPLC. Samples of the salts in aqueous media were assayed by HPLC without dilution.
All solubility sample solutions of 25HC3S salts were determined using HPLC. A linear standard curve was constructed using standards with concentration between 11 μg/mL to 1.5 mg/mL as free acid forcing the curve to origin. Solubilities are reported as mg/mL free acid 25HC3S. Detection limit (LOD) of the HPLC method was calculated as 0.0007 mg/mL.

[4] = Hausner ratio and compressibility index of 25HC3S salts; settings: for Compressibility Index: Table C3 heads this index in %
Method: Although there are some variations in the method of determining the compressibility index and Hausner ratio, the basic procedure is to measure the unsettled apparent volume, VO, and the final tapped volume, Vf, of the powder after tapping the material until no further volume changes occur. The compressibility index and the Hausner ratio are calculated as follows: […]
Both the Hausner ratio and the compressibility index are empirically established. The Hausner ratio and compressibility index are not absolute properties of a material; its value can vary depending on the methodology used to determine them. In this case, since the 14 salts of 25HC3S were measured the same way, the relative values should be accurate.
Table C3, from USP <1174> Powder Flow, describes the flow character of the powder based on the compressibility index and Hausner ratio values.
Powder was carefully poured into a 5 mL glass graduated cylinder (to contain) until it was close to or at 5.0 mL. This initial volume was recorded as Vo. The graduated cylinder was tapped on a hard surface for 200 times and the volume was recorded. The cylinder was tapped 100 times more, and the final volume Vf was recorded. Typically, the volume after 200 taps was identical to after 300 taps, or within 0.1 mL.

[5] = Final pH of the solubility sample solutions in aqueous media; settings: for pH of the solubility sample, 0.9% Sodium Chloride: 0.9% sodium chloride (blank 5.8); for pH of the solubility sample, 5% Dextrose: 5% dextrose (blank 4.7); for pH of the solubility sample, FaSSGF: FaSSGF (blank 1.5, 1.6); for pH of the solubility sample, FaSSIF: FaSSIF (blank 6.5, 6.5); for pH of the solubility sample, FeSSIF: FeSSIF (blank 4.9, 5.0); for pH of the solubility sample, Water: water (blank 6.3)
Method: as §1, §2
5.1 Solubility of 25HC3S Salts in Aqueous Media

[6] = room temperature, one day, listed as crystalline 25HC3S benzathine
[7] = one day, as free acid, LOD 0.0007 mg/mL
[8] = Fed State Simulated Intestinal Fluid, pH 4.9 to 5.0, room temperature, one day, as free acid, 1440 min
[9] = listed as 25HC3S diethanolamine
[10] = listed as 25HC3S hydroxyethylammonium

CC(CCCC(C)(C)O)C1CCC2C3CC=C4CC(OS(=O)(=O)O)CCC4(C)C3CCC12C (centres unmarked) [Salt #9]
Water uptake (weight gain) up to about 95% relative humidity ([1]; 5% to about 95% RH, listed as crystalline 25HC3S benzathine): less than 0.5% | Reversibility of water uptake (in words) ([1]; RH reduced from 95% to 5%, listed as crystalline 25HC3S benzathine): reversibly lose all that water | Hygroscopicity (in words) ([1]; listed as crystalline 25HC3S benzathine): low hygroscopicity | Appearance ([2]; 2-8° C., 3 wk, listed as 25HC3S benzathine): White, free flowing powder with some | Appearance ([2]; 2-8° C., 5 wk): White, free flowing powder with clumping | Appearance ([2]; 80° C., 3 wk, listed as 25HC3S benzathine): White, free flowing powder with clumping | Appearance ([2]; 80° C., 5 wk): White, free flowing powder with clumping | Solubility in 5% Dextrose ([3]; room temperature, one day, as free acid, LOD 0.0007 mg/mL): No solubilized drug was detected | Solubility in FaSSGF (in words) [3, 6]: low solubility | Solubility in FaSSIF (in words) ([3]; FaSSIF, room temperature, one day, listed as benzathine salt of 25HC3S): low solubility | Solubility in FaSSGF [3, 7]: no solubilized drug was detected | Solubility in FaSSIF ([3]; Fasted State Simulated Intestinal Fluid, room temperature, one day, as free acid, 1440 min): 4 µg/mL | Solubility in FeSSIF (in words) ([3]; FeSSIF, room temperature, one day, listed as benzathine salt of 25HC3S): low solubility | Solubility in FeSSIF [3, 8]: 25 µg/mL | Solubility in all aqueous and organic solvents (in words) ([3]; all the aqueous and organic solvents examined): lowest solubility | Solubility in saline / 0.9% sodium chloride (in words) [3, 6]: low solubility | solubility at 24 h ([3]; water, room temperature, one day, as 25HC3S free acid, read-out: Solubility in water): 6 µg/mL | Compressibility Index ([4]; listed as 25HC3S benzathine): 29 | Hausner Ratio ([4]; listed as 25HC3S benzathine): 1.40 | pH of the solubility sample, 0.9% Sodium Chloride ([5]; listed as 25HC3S benzathine): 8.2 | pH of the solubility sample, 5% Dextrose ([5]; listed as 25HC3S benzathine): 7.1 | pH of the solubility sample, FaSSGF [5]: 1.6 | pH of the solubility sample, FaSSIF ([5]; listed as 25HC3S benzathine): 6.5 | pH of the solubility sample, FeSSIF [5]: 5.0 | pH of the solubility sample, Water ([5]; listed as 25HC3S benzathine): 8.6

CC(CCCC(C)(C)O)C1CCC2C3CC=C4CC(OS(=O)(=O)O)CCC4(C)C3CCC12C (centres unmarked) [Salt #10]
Relative humidity above which the salt is hygroscopic [1]: above 75 % relative humidity | Appearance ([2]; 2-8° C., 3 wk, listed as 25HC3S diethanolamine): White, free flowing powder with clumping | Appearance ([2]; 2-8° C., 5 wk): White, free flowing powder with clumping | Appearance ([2]; 80° C., 3 wk, listed as 25HC3S diethanolamine): White, free flowing powder with clumping | Appearance ([2]; 80° C., 5 wk): White, free flowing powder with clumping | Solubility in FaSSGF (in words) ([3]; room temperature, one day): high solubility | Solubility in FaSSIF (in words) ([3]; FaSSIF, room temperature, one day): high solubility | Solubility in FaSSIF (in words) ([3]; FaSSIF, room temperature, one day, listed as crystalline 25HC3S diethanolamine): relatively high solubility | Solubility in FeSSIF (in words) ([3]; FeSSIF, room temperature, one day): high solubility | Solubility in FeSSIF (in words) ([3]; FeSSIF, room temperature, one day, listed as crystalline 25HC3S diethanolamine): relatively high solubility | Solubility in FeSSIF [3, 8]: 858 µg/mL | Solubility in methanol (in words) ([3]; room temperature, one day): did not reach saturation | Solubility in saline / 0.9% sodium chloride (in words) ([3]; room temperature, one day, listed as crystalline 25HC3S diethanolamine): low solubility | Compressibility Index [4, 9]: 34 | Hausner Ratio [4, 9]: 1.52 | pH of the solubility sample, 0.9% Sodium Chloride [5, 9]: 7.9 | pH of the solubility sample, 5% Dextrose [5, 9]: 7.2 | pH of the solubility sample, FaSSGF [5]: 1.6 | pH of the solubility sample, FaSSIF [5, 9]: 6.5 | pH of the solubility sample, FeSSIF [5, 9]: 4.9 | pH of the solubility sample, Water [5, 9]: 8.2

CC(CCCC(C)(C)O)C1CCC2C3CC=C4CC(OS(=O)(=O)O)CCC4(C)C3CCC12C (centres unmarked) [Salt #5]
Hygroscopicity (in words) ([1]; listed as crystalline 25HC3S hydroxyethylammonium): hygroscopic | Appearance ([2]; 2-8° C., 3 wk, listed as 25HC3S hydroxyethylammonium): White, free flowing powder, no clumping | Appearance ([2]; 60° C., 1 wk (after 3 weeks at 2-8° C.), listed as 25HC3S hydroxyethylammonium): Light brown, partially melted material | Appearance after 3 weeks at 80° C. ([2]; 80° C., 3 weeks): completely burned | Appearance ([2]; 80° C., 3 wk, listed as 25HC3S hydroxyethylammonium): Dark brown, partially melted material | solubility at 24 h ([3]; 0.9% nacl, room temperature, one day, as free acid, ND = not detected, detection limit 0.7 μg/mL, read-out: Solubility in 0.9% NaCl): 2 µg/mL | Solubility in 5% Dextrose ([3]; room temperature, one day, as free acid, ND = not detected, detection limit 0.7 μg/mL, 1440 min, listed as 25HC3S hydroxyethylammonium): 45 µg/mL | Solubility in FaSSGF (in words) ([3]; room temperature, one day, listed as crystalline 25HC3S hydroxyethylammonium): low solubility | Solubility in FaSSIF ([3]; FaSSIF, room temperature, one day, as free acid, 1440 min, listed as 25HC3S hydroxyethylammonium): 107 µg/mL | Solubility in FaSSGF [3, 7]: no solubilized drug was detected | Solubility in FeSSIF ([3]; FeSSIF, room temperature, one day, as free acid, 1440 min, listed as 25HC3S hydroxyethylammonium): 718 µg/mL | Solubility in methanol (in words) ([3]; room temperature, one day): did not reach saturation | Solubility in ACN ([3]; acetonitrile, room temperature, one day, as free acid, 1440 min, listed as 25HC3S hydroxyethylammonium): 200 µg/mL | Solubility in EtOH ([3]; ethanol, room temperature, one day, as free acid, ≥ = did not reach saturation, 1440 min, listed as 25HC3S hydroxyethylammonium): ≥22000 µg/mL | Solubility in IPA ([3]; isopropyl alcohol, room temperature, one day, as free acid, 1440 min, listed as 25HC3S hydroxyethylammonium): 3700 µg/mL | Solubility in MeOH ([3]; methanol, room temperature, one day, as free acid, ≥ = did not reach saturation, 1440 min, listed as 25HC3S hydroxyethylammonium): ≥47000 µg/mL | Solubility in H2O ([3]; water, room temperature, one day, as free acid, ND = not detected, detection limit 0.7 μg/mL, 1440 min, listed as 25HC3S hydroxyethylammonium): 43 µg/mL | Compressibility Index [4, 10]: 18 | Hausner Ratio [4, 10]: 1.22 | pH of the solubility sample, 0.9% Sodium Chloride [5, 10]: 8.2 | pH of the solubility sample, 5% Dextrose [5, 10]: 7.0 | pH of the solubility sample, FaSSGF [5]: 1.6 | pH of the solubility sample, FaSSIF [5]: 6.6 | pH of the solubility sample, FeSSIF [5]: 5.0 | pH of the solubility sample, Water [5, 10]: 8.6
